{"source": "paper PMC9115111", "about": "“Metalloprotease Gp63-Targeting Novel Glycoside Exhibits Potential Antileishmanial Activity” (Frontiers in Cellular and Infection Microbiology, 2022)", "key": {"[1]": {"system": "promastigotes of clinical isolate of PKDL strain, BS12 of L. donovani", "assay": "LDH cytotoxicity assay on promastigotes of clinical PKDL isolate BS12", "assay_type": "cell-based", "conditions": "Leishmania donovani, LDH assay 72 h", "protocol": "Promastigote forms of L. donovani (MHOM/IN/1983/AG83) were cultured at 26°C in M199 (GIBCO, India), pH 7.4, supplemented with 10% (v/v) inactivated fetal bovine serum (FBS, GIBCO, India) and 0.02 mg/ml gentamycin (Life Technologies, USA). The clinical isolate of PKDL, BS12, was obtained as a gift from Prof. Mitali Chatterjee [Department of Pharmacology, Institute of Postgraduate Medical Education and Research (IPGMER), Kolkata, India]. […]\nAG83 strain of L. donovani were exposed to various Gly compound concentrations (100 nM–100 µM) in a 96-well microtiter plate (100 µl/well volume) and were incubated for 72 h at 26°C. […] The percent cytotoxicity of test compounds was calculated by normalizing with amphotericin B as 100%. Further percentage growth inhibition was calculated using the formula: […]\nWe further evaluated the effect the Gly2 on the clinical isolate of PKDL strain, BS12 of L. donovani ([Sengupta et al., 2019]). […] Along with Gly2, we also evaluated the cytotoxic effects of 12 compounds on L. donovani promastigotes derived from clinical isolates of PKDL strain at 5 µM ( Supplementary Figure S2 )."}, "[2]": {"system": "J774.A1 murine macrophage cells", "assay": "MTT cell viability assay on macrophages", "assay_type": "cell-based", "conditions": "MTT assay", "protocol": "(§1) The J774.A1 murine macrophage cells were grown in Roswell Park Memorial Institute (RPMI) 1640 medium in the presence of 10% (v/v) FBS and 100 U/ml penicillin−100 µg/ml streptomycin (Gibco, Invitrogen, Thermo Fisher Scientific, NY, USA) at 37°C (humidified) and 5% CO2. […] Madin–Darby canine kidney (MDCK) cells were obtained from the National Centre for Cell Science, Pune, India. MDCK cells were derived from the kidney tissue of an adult female Cocker Spaniel. These were grown in Dulbecco’s modified Eagle’s minimal essential medium (DMEM) in the presence of 10% (v/v) FBS and 100 U/ml penicillin−100 µg/ml streptomycin (Gibco, Invitrogen, Thermo Fisher Scientific, NY, USA) at 37°C (humidified) and 5% CO2 ([Ayana et al., 2018]; [Shivappagowdar et al., 2021]).\n(§2) All the compounds were dissolved in dimethyl sulfoxide (DMSO) (Sigma-Aldrich) for 1 mM stock solution and were screened against promastigotes at a concentration of 5 µM. For Glycosides (Gly) 2, 6, and 8, a range of concentrations starting from 100 nM to 100 µM were screened against promastigote forms of parasite and mammalian cells. Parasites (AG83 and PKDL strain) treated with amphotericin B (3 µg/ml) (Sigma-Aldrich) were maintained as the positive control.\n(§3) To evaluate the cytotoxic effects of 12 compounds on L. donovani promastigotes, LDH assay was performed. This assay involves the reduction of tetrazolium salts to formazan during LDH-mediated catalysis of lactate to pyruvate, which can be detected at […]. Rate of formazan formation is proportional to the release of LDH through damaged cell membranes. For the preliminary screening, the promastigotes were incubated with 12 compounds at a single concentration of 5 µM for a period of 72 h, and the released LDH was estimated ( Supplementary Figure S1A ). Amphotericin B-treated promastigotes were taken as the positive control. […] Having observed the antileishmanial effect of Gly2 on growth and proliferation of promastigotes, we next investigated the cytotoxicity of Gly2 on mammalian cells (MDCK, J774.1A) through MTT (3-(4, 5-dimethylthiazolyl-2)-2, 5-diphenyltetrazolium bromide) cell viability assay ( Supplementary Figures S1B, C ). […] The CC50 values of Gly2 analog was in the micromolar range. The selectivity index (SI) for the compound was calculated as the ratio between cytotoxicity (CC50) and activity (IC50) against promastigotes ( Table 1 )."}, "[3]": {"assay": "MTT cell viability assay on macrophages", "assay_type": "cell-based, murine", "conditions": "mouse, J774.A1 macrophage cells; Table 1; macrophages", "protocol": "as §1, §2, §3"}, "[4]": {"system": "L. donovani promastigotes", "assay": "Hoechst/PI live/dead dual staining of promastigotes", "assay_type": "cell-based, Leishmania donovani", "conditions": "5 µM, 72 h", "protocol": "The toxic effect of the three compounds, Gly2, 6, and 8 on promastigotes at 5 µM >IC50 concentration was measured by Hoechst and propidium iodide (PI) double staining. […], parasites were harvested, washed in 0.01 M PBS (pH = 7.4), and stained with Hoechst 33258 (1 µg/ml) (Life Technologies, USA) and PI (5 µg/ml) (Life Technologies, USA) followed by incubation for a period of 20 min at 37°C. Subsequently, cells were washed for excessive stain removal and visualized using fluorescence microscope with 510–560-nm filter block for PI red fluorescence and excitation/emission spectra at 361/497 for Hoechst ([López-Arencibia et al., 2015])."}, "AG83 promastigotes": {"system": "AG83 promastigotes", "assay": "CFDA-SE promastigote proliferation assay (FACS)", "assay_type": "cell-based, Leishmania donovani", "conditions": "5 µM", "protocol": "AG83 parasite growth and multiplication were assessed by fluorescence-activated cell sorting and fluorescence microscopy with 6-carboxyfluorescein diacetate succinimidyl ester (CFDA-SE, Life Technologies, USA) as a probe. Promastigotes were washed thrice with PBS. The cells were labeled with CFDA-SE dye and were then incubated at 37°C for 10 min. These cells were then resuspended in ice-cold M199 medium. Furthermore, they were centrifuged at 1,200 g for 10 min (4°C) and resuspended in fresh medium. Cells were treated with the Gly2 and were analyzed through BD FACS DIVA for 3 consecutive replicates after 0, 24, 48, and 72 h, respectively ([Messaritakis et al., 2010])."}}, "note": "Values joined by “and” are separate entries in the source; they are usually repeats but may differ in a detail not shown here. Equal entries are not always repeated."}
{"smiles": "CC(C)CCOC1O[C@H](CO)[C@@H](O)[C@H](O)[C@H]1O", "note": "(stereo partly shown) [Gly2]", "values": [{"measurement": "IC50", "setting": "[1]", "value": 1.97, "unit": "µM"}, {"measurement": "cytotoxicity in macrophage cells", "setting": "[2]", "value": "minimum level of cytotoxicity"}, {"measurement": "CC50", "setting": "[3]", "value": 2900, "unit": "µM"}, {"measurement": "dead parasites (PI positive)", "setting": "[4]", "value": "~ 94% and ~ 94.15% and ~ 90%"}, {"measurement": "percentage of CFDA-positive cells", "setting": "AG83 promastigotes; 24 h", "value": 81.59, "unit": "%"}, {"measurement": "percentage of CFDA-positive cells", "setting": "AG83 promastigotes; 48 h", "value": 74.68, "unit": "%"}, {"measurement": "percentage of CFDA-positive cells", "setting": "AG83 promastigotes; 72 h", "value": 68.48, "unit": "%"}]}
